Laboratory results: paper PMC6005030, “The c-Abl inhibitor, Radotinib HCl, is neuroprotective in a preclinical Parkinson’s disease mouse model” (Human Molecular Genetics, 2018)
pIC50: −log10 of the molar value. Structures can show the parent of a compound that is named as a salt.

Legend:
primary cortical neurons [1] = assay: α-synuclein PFF-induced neuronal toxicity (TUNEL, Alamar Blue); assay type: cell-based, C57BL/6 mice; details: α-synuclein PFF 14 days; 50, 250, 1000 nM
Experimental: (§1) C57BL/6 mice were obtained from the Charles River (Wilmington, MA). Primary cortical neurons were prepared from E15.5 pups and cultured in Neurobasal media supplemented with B-27, 0.5 mM L-glutamine, penicillin and streptomycin (Invitrogen, Grand Island, NY) on 24-well tissue culture plates coated with poly-D-lysine. Radotinib HCl was added to neurons for 30 min and α-synuclein PFF (final concentration 1 μg/ml) was further incubated as described (10 or 14 days) followed by Immunocytochemistry and biochemical or toxicity assays. Radotinib HCl was added to neurons three times a week before the assays.
Cell viability was tested via two methods; In Situ Cell Death Detection Kit (Roche) for TUNEL assay and Alamar Blue assay (Thermo Fisher). […] Cell death was assessed through the TUNEL assay, according to the manufacturer’s protocol. For Alamar Blue assay, after adding Alamar Blue solution for 4 h, cell viability was determined by fluorescence at excitation wavelength 570 nm and emission wavelength 585 nm.

BCR-Abl = details: cited from earlier work
[2] = tested on: α-synuclein PFF mouse model of sporadic PD; assay: α-synuclein PFF mouse model: dopaminergic neurodegeneration and striatal TH fiber density; assay type: in vivo, C57BL/6 mice; details: for SNpc TH- and Nissl-positive dopaminergic neurons (stereologic counting): 180 days after PFF
Experimental: (§2) For stereotaxic injection of α-synuclein PFF, 2 months old mice were anesthetized with the mixture of xylazene and ketamine. An injection cannula (26.5 gauge) was applied stereotaxically into the striatum (anteroposterior, […]; dorsoventral, 2.6 mm) unilaterally into the right hemisphere. The infusion of 2 μl α-synuclein PFF (2.5 μg/μl in PBS) or PBS was performed at a rate of 0.4 μl per min. The head skin was closed by suturing and wound healing and recovery were monitored following surgery. For stereological analysis, animals were perfused and fixed intracardially with ice-cold PBS followed by 4% paraformaldehyde at 6 months after striatal α-synuclein PFF injections. The brain was removed and processed for immunohistochemistry or immunofluorescence. Behavioral test was performed at 6 months after the unilateral striatal α-synuclein PFF injections. Treatment of Radotinib HCl was accomplished after 1 month of striatal α-synuclein PFF injections, once a day.
The perfusion was performed with ice-cold PBS and fixed by 4% paraformaldehyde after deep anesthesia. Whole brains were collected, and fixed in the 4% paraformaldehyde, and incubated in cryoprotection solution (30% sucrose/PBS, pH 7.4). Brains were frozen in an optimal cutting temperature (OCT) solution and serial coronal sections (30 µm sections) were cut with a microtome. […] TH-positive and Nissl-positive dopaminergic neurons from the SNpc region were counted through optical fractionators, the unbiased method for cell counting. […] The total number of TH-stained neurons and Nissl counts was analyzed as previously described ([27],[43]). Fiber density in the striatum was analyzed by optical density (OD) measurement. […] The number of pS129-α-synuclein positive and Nissl positive in the SNpc region were measured with ImageJ software and field counting. […] The number and immunoreactivities of microglia and astrocyte in the SNpc region were measured with ImageJ software.

[3] = tested on: α-synuclein PFF mouse model of sporadic PD; assay: α-synuclein PFF mouse model: LB/LN-like pathology in vivo; parameters: species or system C57BL/6 mice; details: for Accumulation of pS129-α-synuclein in SNpc TH-positive neurons: oral once a day for 5 months, 180 days after PFF
Experimental: For Triton X-100 (TX, Sigma-Aldrich) soluble and insoluble fraction, cells were prepared with sequential lysis buffer. Samples were homogenized in the followed TX-soluble buffer (50 mM Tris (pH 8.0), 150 mM NaCl, 1% TX with phosphatase inhibitor cocktail and protease inhibitor cocktail) and then were centrifuged and collected the soluble supernatant. The insoluble pellet was resuspended in TX-insoluble buffer (50 mM Tris (pH 8.0), 150 mM NaCl, 1% TX, 2% SDS with phosphatase inhibitor cocktail and protease inhibitor cocktail) and then was sonicated and centrifuged at 22 000 × g for 30 min.
Protein concentrations were determined using the BCA assay (Pierce, Rockford, IL, USA). 2X Laemmli buffer (Bio-Rad) was utilized to dilute the lysates. […] Membrane was blocked with TTBS (150 mM NaCl, 10 mM Tris–HCl (pH 7.4), 0.05% Tween 20) containing 5% skim milk for 30–60 min and incubated at 4°C overnight with primary antibodies; mouse anti-α-synuclein (610787; BD Transduction Laboratories), rabbit anti-pY245 c-Abl (2861; Cell Signaling Technology), mouse anti-c-Abl (554148; BD Transduction Laboratories), rabbit monoclonal anti-pS129 α-synuclein (ab168381; Abcam), rabbit polyclonal anti-phospho-p38 MAPK (Thr180/Tyr182) (9211; Cell Signaling Technology), rabbit polyclonal anti-p38 MAPK (A11340; Abclonal Technology) followed by HRP-conjugated rabbit or mouse secondary antibodies (1: 5000, GE Healthcare) for 1 h at room temperature. Rabbit polyclonal anti-pY39-α-synuclein antibody was generated as described previously ([13]). Protein bands were detected using chemiluminescence detection system onto X-ray film. The membranes were reprobed with HRP-conjugated β-actin antibody (1: 20 000, Sigma-Aldrich).
(§3) Primary mouse cortical neurons were plated onto poly-D-lysine coated coverslips. 4% paraformaldehyde was used to fix the neurons, followed by blocking in a solution with 5% normal donkey serum (Jackson ImmunoResearch), 2% BSA (Sigma-Aldrich) and 0.1% TX (Sigma-Aldrich) for 30–60 min at room temperature. Floating brain tissue sections were blocked with 10% donkey serum (Jackson Immunoreserach) in PBS plus 0.2% TX for 30 min at room temperature.
Primary antibodies, anti-pS129-α-synuclein (ab168381; Abcam), anti-TH antibody (Novus Biologicals) and anti-MAP2 (MAB3418; Millipore) were incubated at 4°C overnight. The samples were washed with PBS three times, followed by 1 h of incubation with a mixture of FITC-conjugated (Jackson ImmunoReserach) and Cy3-conjugated (Jackson ImmunoReserach) secondary antibodies at room temperature. […]
(§4) For stereotaxic injection of α-synuclein PFF, 2 months old mice were anesthetized with the mixture of xylazene and ketamine. […] The head skin was closed by suturing and wound healing and recovery were monitored following surgery. […]

c-Abl [4] = assay: α-synuclein PFF mouse model: c-Abl activation and p38 MAPK phosphorylation in brain (Western blot); assay type: in vivo, C57BL/6 mice
Experimental: The mouse brain tissues were homogenized and prepared in lysis buffer (10 mM Tris–HCL, pH 7.4, 150 mM NaCl, 5 mM EDTA, 0.5% Nonidet P-40, 10 mM Na-β-glycerophosphate, phosphatase inhibitor cocktail (Sigma-Aldrich) and complete protease inhibitor mixture (Roche)), using a Diax 900 homogenizer (Sigma-Aldrich). After homogenization, samples were rotated at 4°C for 30 min for complete lysis, the homogenate was centrifuged at 22 000 × g for 30 min and the supernatants were collected.
(§5) Protein concentrations were determined using the BCA assay (Pierce, Rockford, IL, USA). 2X Laemmli buffer (Bio-Rad) was utilized to dilute the lysates. […] Protein bands were detected using chemiluminescence detection system onto X-ray film. […]
as §4

primary cortical neurons [5] = assay: Oxygen consumption rate (Seahorse XF24) in α-synuclein PFF-treated primary cortical neurons; assay type: cell-based, mouse; details: 1 μM, 14 days
Experimental: OCR was determined using the Seahorse XF24 Extracellular Flux Analyzer and the XF Cell Mito Stress Test Kit according to the manufacturer’s instruction (Agilent Technologies, Santa Clara, CA) ([42]). Briefly, primary mouse cortical neurons were plated in a XF24 cell culture microplate coated with poly-D-lysine. Cells were washed once with XF Assay Media, pre-incubated in a non-CO2 incubator at 37°C for 30 min in XF Assay Media. For the assay, cells were treated sequentially with 1 μM Oligomycin, 2 μM carbonyl cyanide-p-trifluoromethoxyphenylhydrazone (FCCP), and 1 μM Rotenone plus 1 μM Antimycin A. Oligomycin inhibits ATP synthase (complex V) to measure ATP production and proton leak. FCCP uncouples oxygen consumption from ATP production enables to measure maximal respiration. Rotenone and antimycin A inhibit complexes I and III and shut down mitochondrial respiration. Basal respiration was calculated using the mean of the OCR measurements before oligomycin injection minus the mean of the OCR measurements after rotenone and antimycin A injection, and maximal respiration was defined as the difference between the mean of the OCR measurements after FCCP injection and the mean of the OCR measurements after rotenone and antimycin A injection.

[6] = tested on: α-synuclein PFF mouse model of sporadic PD; assay: α-synuclein PFF mouse model: neuroinflammation (Iba-1, GFAP) in SNpc; assay type: in vivo, C57BL/6 mice
Experimental: as §2
The perfusion was performed with ice-cold PBS and fixed by 4% paraformaldehyde after deep anesthesia. Whole brains were collected, and fixed in the 4% paraformaldehyde, and incubated in cryoprotection solution (30% sucrose/PBS, pH 7.4). Brains were frozen in an optimal cutting temperature (OCT) solution and serial coronal sections (30 µm sections) were cut with a microtome. Free-floating sections were blocked with 5% goat or horse serum/PBS plus 0.2% Triton X-100 and incubated with anti-TH antibody (Novus Biologicals) or anti-pS129-α-synuclein followed by incubation with biotin-conjugated anti-rabbit antibody or anti-mouse antibody (Vector Labs). After washing three times, ABC reagents (Vector Labs) were added and sections were developed using SigmaFast 3, 3′-Diaminobenzidine (DAB) Peroxidase Substrate (Sigma-Aldrich). Sections were counterstained with Nissl (0.09% thionin). TH-positive and Nissl-positive dopaminergic neurons from the SNpc region were counted through optical fractionators, the unbiased method for cell counting. This method was carried out by using a computer-assisted image analysis system consisting of an Axiophot photomicroscope (Carl Zeiss Vision) equipped with a computer-controlled motorized stage (Ludl Electronics), a Hitachi HV C20 camera and Stereo Investigator software (MicroBright-Field). The total number of TH-stained neurons and Nissl counts was analyzed as previously described ([27],[43]). Fiber density in the striatum was analyzed by optical density (OD) measurement. […] The number of pS129-α-synuclein positive and Nissl positive in the SNpc region were measured with ImageJ software and field counting. […] The number and immunoreactivities of microglia and astrocyte in the SNpc region were measured with ImageJ software.

c-Abl [7] = assay: α-synuclein PFF-induced c-Abl activation in primary cortical neurons (Western blot); assay type: cell-based, C57BL/6 mice; details: 1 μM
Experimental: as §1
After washing two times with PBS, primary cortical neurons were harvested and then lysed with RIPA lysis buffer (Thermo Scientific) with phosphatase inhibitor cocktail (Sigma-Aldrich) and complete protease inhibitor mixture (Roche) for 30 min in ice. The lysate is then homogenized and centrifuged at 22 000 × g for 30 min.
as §5

primary cortical neurons [8] = assay: α-synuclein PFF-induced LB/LN-like pathology in primary cortical neurons (pS129-α-synuclein immunostaining); assay type: cell-based, C57BL/6 mice; details: 50 nM, 250 nM and 1 μM, dose-dependent; 10 days
Experimental: as §1, §3
Primary antibodies, anti-pS129-α-synuclein (ab168381; Abcam), anti-TH antibody (Novus Biologicals) and anti-MAP2 (MAB3418; Millipore) were incubated at 4°C overnight. […]

[9] = tested on: α-synuclein PFF mouse model of sporadic PD; assay: α-synuclein PFF mouse model: behavioral tests (pole, grip strength, amphetamine rotation); assay type: in vivo, C57BL/6 mice
Experimental: as §2
Before the actual test, mice were trained for three consecutive days and each training session consists of three test trials. Briefly, the mice were placed on the top of the pole (3 in. from the top of the pole) and then total time to reach the bottom of the pole was recorded. For the test, mice went through three sessions and the total time was recorded. Results were recorded by turn down, climb down, and total time (in seconds).
Neuromuscular strength was measured by maximum holding force generated by the mice. Mice were allowed to grasp a metal grid with their forelimbs. The tail was gently pulled and the maximum holding force recorded by the force transducer (Biosed, USA) when the mice released their grasp on the grid.
The amphetamine treatment (5 mg/kg, Sigma-Aldrich) was intraperitoneally administered after 6 months of α-synuclein PFF injections with or without Radotinib HCl treatment. Mice were placed in individual white bowls with a diameter of 20 cm and allowed to habituate to their environment for 10 min before turns contralateral and ipsilateral to the lesion were recorded over 20 min. Full-body ipsilateral rotations (clockwise) per 1 min session were recorded for each mouse from the video recordings.

[10] = mid (10 mg/kg) and high (30 mg/kg) doses oral
[11] = low (3), mid (10) and high (30 mg/kg) doses oral, 6 months after PFF

Cc1cn(-c2cc(NC(=O)c3ccc(C)c(Nc4nccc(-c5cnccn5)n4)c3)cc(C(F)(F)F)c2)cn1 [Radotinib HCl]
α-synuclein PFF neuronal toxicity, Alamar blue assay (primary cortical neurons [1]): significantly attenuated
α-synuclein PFF neuronal toxicity, TUNEL staining (primary cortical neurons [1]): significantly attenuated
pIC50 (BCR-Abl): 7.47
α-synuclein PFF-induced reduction in striatal TH-fiber density ([2]; low (3), mid (10) and high (30 mg/kg) doses oral): significantly rescued
SNpc TH- and Nissl-positive dopaminergic neurons (stereologic counting) [2, 10]: dramatic preservation
TX-insoluble α-synuclein aggregates species, pS129-α-synuclein and pY39-α-synuclein levels in ventral midbrain ([3]; 3, 10, 30 mg/kg oral, dose-dependent): significantly reduced
Accumulation of pS129-α-synuclein in SNpc TH-positive neurons ([3]; mid (10 mg/kg) and high (30 mg/kg) doses): significantly decreased
Increase in phosphorylation of c-Abl (Y245) and of p38 MAPK in α-synuclein PFF-injected mice (c-Abl [4]; Supplementary Fig. S1): reversed
c-Abl activation, TX-insoluble α-synuclein aggregates, phosphorylation of Y39-α-synuclein and p38 MAPK, compared to Nilotinib-treated mice (c-Abl [4]; α-synuclein PFF-injected mice): substantially decreased
Basal respiration rate (BRR) (primary cortical neurons [5]): markedly restored
Maximal respiration rate (MRR) (primary cortical neurons [5]): markedly restored
Astrocyte activation (GFAP) in SNpc [6, 10]: significantly decreased
Iba-1 immunoreactivity and microglial density in SNpc [6, 10]: significantly reduced
c-Abl activation induced by α-synuclein PFF (pY245-c-Abl) (c-Abl [7]; α-synuclein PFF 1 μg/ml, primary cortical neurons): significantly decreased
Level of pY39-α-synuclein (c-Abl [7]; α-synuclein PFF-treated primary cortical neurons): significantly decreased
LB/LN-like pathology induced by α-synuclein PFF (pS129-α-synuclein immunostaining) (primary cortical neurons [8]): significantly decreased
Grip strength (neuromuscular strength reduced by α-synuclein PFF) [9, 11]: restored
Pole test latency induced by α-synuclein PFF [9, 11]: significantly restored
Amphetamine-induced full body ipsilateral rotations ([9]; mid (10 mg/kg) and high (30 mg/kg) doses oral, amphetamine 5 mg/kg I.P.): reduced

Cc1cn(-c2cc(NC(=O)c3ccc(C)c(Nc4nccc(-c5cccnc5)n4)c3)cc(C(F)(F)F)c2)cn1 [Nilotinib]
SNpc TH- and Nissl-positive dopaminergic neurons (stereologic counting) ([2]; high dose (30 mg/kg) oral): dramatic preservation
Reduction of TX-insoluble α-synuclein aggregate species, pS129- and pY39-α-synuclein compared to Radotinib HCl ([3]; high dose (30 mg/kg) oral): less effect
Accumulation of pS129-α-synuclein in SNpc TH-positive neurons ([3]; high dose (30 mg/kg)): significantly decreased
Astrocyte activation (GFAP) in SNpc ([6]; high dose (30 mg/kg) oral): significantly decreased
Iba-1 immunoreactivity and microglial density in SNpc ([6]; high dose (30 mg/kg) oral): significantly reduced
Behavioral deficits in the α-synuclein PFF mouse model ([9]; high dose (30 mg/kg) oral): protected against the behavioral deficits
